Test results taken from US8334409B2, “Process for purifying rasagiline base” (Teva Pharmaceutical Industries, Ltd., priority 2008, dated 2012).

Tests used:
[1] = low levels of volatiles (water and residual solvents) by KF and TGA
[2] = alcohols, acetone, ethyl acetate, toluene, diethyl ether, dioxane, hexane and n-heptane

hygroscopicity [1]: not hygroscopic
solubility in polar and non-polar organic solvents [2]: freely soluble
SMILES: C#CCN[C@@H]1CCc2ccccc21 [rasagiline base, R(+)-N-propargyl-1-aminoindan]
